System: gut microbiota
Assay: Gut microbiome analysis (16S rRNA sequencing of fecal samples) in STAM model of NASH
Assay type: in vivo, C57BL/6J mice
Settings: post-intervention
Text: The study is reported in accordance with Animal Research: Reporting of In Vivo Experiments (ARRIVE) guidelines. C57BL/6J mice were obtained from Japan SLC, Inc. (Japan). All animals used in this study were cared for under the following guidelines: Act on Welfare and Management of Animals (Ministry of the Environment, Japan, Act No. 105 of Oct. 1, 1973), standards relating to the care and management of laboratory animals and relief of pain (Notice No. 88 of the Ministry of the Environment, Japan, Apr. 28, 2006) and the guidelines for proper conduct of animal experiments (Science Council of Japan, Jun. 1, 2006). Protocol approvals were obtained from SMC Laboratories, Japan's IACUC (Study reference no: […] Mice were maintained in a specific pathogen-free (SPF) facility under controlled conditions of temperature (23±3° C.), humidity (50±20%), lighting (12-hour artificial light and dark cycles; light from 8:00 to 20:00) and air exchange. The STAM model of NASH was induced as previously described [D10]. Mice were given a single subcutaneous injection of 200 μg streptozotocin (STZ, Sigma-Aldrich, USA) solution 2 days after birth and fed with a high-fat diet (HFD, 57 kcal % fat, Cat #HFD32, CLEA Japan, Inc., Japan) from 4-9 weeks of age. All mice develop liver steatosis and diabetes and at […] mice had established steatohepatitis, histologically. Studygroups: There were five study groups, described below. Eight mice were included in each study group. Eight NASH mice were orally administered vehicle supplemented with AFO-202 Beta Glucan at a dose of 1 mg/kg in a volume of 5 mL/kg once daily from 6 to 9 weeks of age. Eight NASH mice were orally administered vehicle supplemented with Telmisartan at a dose of 10 mg/kg once daily from 6 to 9 weeks of age. Frequency: Fecal samples were collected at the 6 weeks of age (before administration) and 9 weeks of age (before sacrifice). Procedure: At 6 weeks of age, fecal samples were collected from each mouse by clean catch method. […] A sterile petri dish was placed on the bench. Gently massage the abdomen, position the bottom of mouse over a fresh petri dish, and collect 1-2 fecal pellets. At sacrifice, fecal samples were aseptically collected from cecum. The tubes with feces were placed on ice immediately. These tubes were snap frozen in liquid nitrogen and stored at -80° C. for shipping. In this analysis, the 16S rRNA sequence data acquired by the next-generation sequencer from the fecal […] was used to perform community analysis using the QIIME2 program for microbial community analysis. The raw read data in FASTQ format output from the next-generation sequencer was trimmed to remove adapter sequences and low QV regions that may be included in the data. Cutadapt was used to remove adapter sequences from DNA sequencing reads. Trimmomatic was used as read trimming tool for Illumina NGS data. The adapter sequence was trimmed using the adapter trimming program “cutadapt” if the Trimming of the region at the end of the read sequence overlapped the corresponding sequence by at least one base (mismatch tolerance: 20%). When reads containing N were present in at least one of Read1 and Read2, both Read1 and Read2 were removed. Trimming of low QV regions was performed on the read data after processing using the QV trimming program “Trimmomatic” under the following conditions. The window of 20 bases is slid from the 5' side, and the area where the average QV is less than 20 is trimmed. After trimming, only the reads with more than 50 bases remaining in both Read1 and Read2 were taken as output. The microbial community analysis based on 16S rRNA sequence was performed on the sequence data trimmed in the previous section using the microbial community analysis program “QIIME2”. The annotation program “sklearn” included in QIIME2 is used to annotate the ASV (OTU) sequences. […]

`CCCc1nc2c(C)cc(-c3nc4ccccc4n3C)cc2n1Cc1ccc(-c2ccccc2C(=O)O)cc1` [Telmisartan] was tested, and the “Abundance: S24-7, —, —” value (line r298) was 0, the “Abundance: Lachnospiraceae, —, —” value (line r300) was 60 and the “Abundance: Ruminococcaceae, Oscillospira, —” value (“Abundance … Oscillospira, —” for short) (line r301) was 30. For the same compound, the “Abundance: S24-7, —, —” value (line r302) was 0, the “Abundance: —, —, —” value (line r303) was 107 and the “Abundance … Oscillospira, —” value (line r304) was 9. The “Abundance: Bacteroidaceae, Bacteroides, acidifaciens” value (line r305) was 0, the “Abundance: Bacteroidaceae, Bacteroides, acidifaciens” value (line r306) was 11 and the “Abundance: Lachnospiraceae, Dorea, —” value (line r307) was 8. The “Abundance: Ruminococcaceae, Other, Other” value (line r308) was 11, the “Abundance: Lachnospiraceae, —, —” value (line r309) was 13 and the “Abundance: Lachnospiraceae, —, —” value (line r310) was 0. For the same compound, the “Abundance: S24-7, —, —” value (line r311) was 1, the “Abundance: Lachnospiraceae, Other, Other” value (line r312) was 0 and the “Abundance: —, —, —” value (line r313) was 0. For the same compound, the “Abundance … Oscillospira, —” value (line r314) was 9, the “Abundance … Oscillospira, —” value (line r315) was 0 and the “Abundance: Lachnospiraceae, —, —” value (line r316) was 19. For the same compound, the “Abundance: Erysipelotrichaceae, —, —” value (line r317) was 0, the “Abundance: S24-7, —, —” value (line r318) was 0 and the “Abundance: Lachnospiraceae, —, —” value (line r319) was 9. For the same compound, the “Abundance … Oscillospira, —” value (line r320) was 0, the “Abundance: Lachnospiraceae, —, —” value (line r321) was 14 and the “Abundance: Other, Other, Other” value (line r322) was 0. The “Abundance: F16, —, —” value (line r323) was 0, the “Abundance: Christensenellaceae, —, —” value (line r324) was 5 and the “Abundance: Lachnospiraceae, Other, Other” value (line r325) was 0. For the same compound, the “Abundance … Oscillospira, —” value (line r326) was 0, the “Abundance: —, —, —” value (line r327) was 0 and the “Abundance: Ruminococcaceae, Other, Other” value (line r328) was 0. The “Abundance: —, —, —” value (line r329) was 0, the “Abundance: Lachnospiraceae, Other, Other” value (line r330) was 0 and the “Abundance: Other, Other, Other” value (line r331) was 0. The “Abundance: Enterococcaceae, Vagococcus, —” value (line r332) was 26, the “Abundance: Ruminococcaceae, Ruminococcus, —” value (line r333) was 0 and the “Abundance: Erysipelotrichaceae, Coprabacillus, —” value (line r334) was 0. The “Abundance: Other, Other, Other” value (line r335) was 0, the “Abundance … Oscillospira, —” value (line r336) was 9 and the “Abundance … Oscillospira, —” value (line r337) was 0. The “Abundance: —, —, —” value (line r338) was 0, the “Abundance: Lachnospiraceae, —, —” value (line r339) was 0 and the “Abundance … Oscillospira, —” value (line r340) was 31. For the same compound, the “Abundance: Lachnospiraceae, Coprococcus, —” value (line r341) was 0, the “Abundance: Ruminococcaceae, Other, Other” value (line r342) was 5 and the “Abundance: —, —, —” value (line r343) was 0. For the same compound, the “Abundance: Erysipelotrichaceae, —, —” value (line r344) was 2, the “Abundance: Rikenellaceae, —, —” value (line r345) was 11 and the “Abundance: —, —, —” value (line r346) was 0. The “Abundance: —, —, —” value (line r347) was 40, the “Abundance: —, —, —” value (line r348) was 0 and the “Abundance: Lachnospiraceae, —, —” value (line r349) was 0. The “Abundance: —, —, —” value (line r350) was 0, the “Abundance: Lachnospiraceae, Clostridium, Other” value (line r351) was 28 and the “Abundance: Erysipelotrichaceae, —, —” value (line r352) was 0. The “Abundance: Streptococcaceae, Streptococcus, minor” value (line r353) was 0, the “Abundance … Oscillospira, —” value (line r354) was 0 and the “Abundance: —, —, —” value (line r355) was 0. For the same compound, the “Abundance: Lachnospiraceae, Other, Other” value (line r356) was 0, the “Abundance: Other, Other, Other” value (line r357) was 0 and the “Abundance: —, —, —” value (line r358) was 0. For the same compound, the “Abundance: —, —, —” value (line r359) was 0, the “Abundance: Lachnospiraceae, —, —” value (line r362) was 12 and the “Abundance: Streptococcaceae, Streptococcus, —” value (line r363) was 0. The “Abundance: S24-7, —, —” value (line r365) was 0, the “Abundance: Other, Other, Other” value (line r367) was 42 and the “Abundance: [Mogibacteriaceae], —, —” value (line r368) was 0. For the same compound, the “Abundance: Enterobacteriaceae, Enterobacter, Other” value (line r369) was 0, the “Abundance: Erysipelotrichaceae, —, —” value (line r371) was 19 and the “Abundance: Aerococcaceae, Aerococcus, —” value (line r372) was 39. The “Abundance … Oscillospira, —” value (line r373) was 0, the “Abundance … Oscillospira, —” value (line r374) was 12 and the “Abundance: Other, Other, Other” value (line r375) was 0. For the same compound, the “Abundance: Lachnospiraceae, Coprococcus, —” value (line r377) was 0, the “Abundance: Other, Other, Other” value (line r378) was 0 and the “Abundance: Family Lachnospiraceae, Genus Other, Species Other” value (table row r380) was 0. For the same compound, the “Abundance: Family Ruminococcaceae, Genus Oscillospira, Species —” value (shortened to “Abundance … Genus Oscillospira, Species —”) (table row r381) was 0, the “Abundance: Family S24-7, Genus —, Species —” value (“Abundance: Family S24-7, Genus” for short) (table row r382) was 0 and the “Abundance: Family Ruminococcaceae, Genus Ruminococcus, Species —” value (shortened to “Abundance … Genus Ruminococcus, Species —”) (table row r383) was 0. For the same compound, the “Abundance … Genus Oscillospira, Species —” value (table row r384) was 0, the “Abundance … Genus Ruminococcus, Species —” value (table row r389) was 0 and the “Abundance: Family Lachnospiraceae, Genus —, Species —” value (table row r390) was 0. The “Abundance … Genus Oscillospira, Species —” value (table row r391) was 0, the “Abundance: Family Corynebacteriaceae, Genus Corynebacterium, Species stationis” value (table row r394) was 0 and the “Abundance: Family Ruminococcaceae, Genus Other, Species Other” value (table row r395) was 0. For the same compound, the “Abundance: Family S24-7, Genus” value (table row r396) was 13, the “Abundance … Genus Oscillospira, Species —” value (table row r397) was 26 and the “Abundance … Genus Oscillospira, Species —” value (table row r398) was 0. The “Abundance … Genus Ruminococcus, Species —” value (table row r399) was 0, the “Abundance: Family [Mogibacteriaceae], Genus —, Species —” value (table row r400) was 0 and the “Abundance: Family Erysipelotrichaceae, Genus Coprobacillus, Species —” value (table row r401) was 0. For the same compound, the “Abundance: Family Erysipelotrichaceae, Genus Clostridium, Species cocleatum” value (table row r402) was 1, the “Abundance: Family S24-7, Genus” value (table row r403) was 0 and the “Abundance: Family Coriobacteriaceae, Genus —, Species —” value (table row r404) was 0. For the same compound, the “Abundance: Family Coriobacteriaceae, Genus Adlercreutzia, Species —” value (table row r405) was 0, the “Abundance: Family Enterococcaceae, Genus Vagococcus, Species —” value (table row r407) was 0 and the “Abundance: Family [Mogibacteriaceae], Genus —, Species —” value (table row r409) was 6. For the same compound, the “Abundance: Family S24-7, Genus” value (table row r413) was 11, the “Abundance … Genus Oscillospira, Species —” value (table row r414) was 0 and the “Abundance: Family Planococcaceae, Genus Sporosarcina, Species —” value (table row r415) was 0. The “Abundance: Family Erysipelotrichaceae, Genus Other, Species Other” value (table row r417) was 0, the “Abundance … Genus Ruminococcus, Species —” value (table row r419) was 0 and the “Abundance: Family Coriobacteriaceae, Genus Adlercreutzia, Species —” value (table row r423) was 0. The “Abundance: Family Other, Genus Other, Species Other” value (table row r424) was 0 and the “Abundance: Family Ruminococcaceae, Genus Other, Species Other” value (table row r425) was 0.
